From PMC7294993 (Science signaling, 2020)
pEC50: −log10 of the molar value.

Columns and labels:
MRCKA (CDC42BPA) = MRCKA (CDC42BPA) (Homo sapiens, UniProt Q5VT25); experiment: in vitro radioisotope […] kinase assay, 10-dose; type: biochemical
MRCKB (CDC42BPB) = MRCKB (CDC42BPB) (Homo sapiens, UniProt Q9Y5S2); experiment: in vitro radioisotope […] kinase assay, 10-dose; type: biochemical
Chain of MRCKB (CDC42BPB) (Q9Y5S2 whole entry): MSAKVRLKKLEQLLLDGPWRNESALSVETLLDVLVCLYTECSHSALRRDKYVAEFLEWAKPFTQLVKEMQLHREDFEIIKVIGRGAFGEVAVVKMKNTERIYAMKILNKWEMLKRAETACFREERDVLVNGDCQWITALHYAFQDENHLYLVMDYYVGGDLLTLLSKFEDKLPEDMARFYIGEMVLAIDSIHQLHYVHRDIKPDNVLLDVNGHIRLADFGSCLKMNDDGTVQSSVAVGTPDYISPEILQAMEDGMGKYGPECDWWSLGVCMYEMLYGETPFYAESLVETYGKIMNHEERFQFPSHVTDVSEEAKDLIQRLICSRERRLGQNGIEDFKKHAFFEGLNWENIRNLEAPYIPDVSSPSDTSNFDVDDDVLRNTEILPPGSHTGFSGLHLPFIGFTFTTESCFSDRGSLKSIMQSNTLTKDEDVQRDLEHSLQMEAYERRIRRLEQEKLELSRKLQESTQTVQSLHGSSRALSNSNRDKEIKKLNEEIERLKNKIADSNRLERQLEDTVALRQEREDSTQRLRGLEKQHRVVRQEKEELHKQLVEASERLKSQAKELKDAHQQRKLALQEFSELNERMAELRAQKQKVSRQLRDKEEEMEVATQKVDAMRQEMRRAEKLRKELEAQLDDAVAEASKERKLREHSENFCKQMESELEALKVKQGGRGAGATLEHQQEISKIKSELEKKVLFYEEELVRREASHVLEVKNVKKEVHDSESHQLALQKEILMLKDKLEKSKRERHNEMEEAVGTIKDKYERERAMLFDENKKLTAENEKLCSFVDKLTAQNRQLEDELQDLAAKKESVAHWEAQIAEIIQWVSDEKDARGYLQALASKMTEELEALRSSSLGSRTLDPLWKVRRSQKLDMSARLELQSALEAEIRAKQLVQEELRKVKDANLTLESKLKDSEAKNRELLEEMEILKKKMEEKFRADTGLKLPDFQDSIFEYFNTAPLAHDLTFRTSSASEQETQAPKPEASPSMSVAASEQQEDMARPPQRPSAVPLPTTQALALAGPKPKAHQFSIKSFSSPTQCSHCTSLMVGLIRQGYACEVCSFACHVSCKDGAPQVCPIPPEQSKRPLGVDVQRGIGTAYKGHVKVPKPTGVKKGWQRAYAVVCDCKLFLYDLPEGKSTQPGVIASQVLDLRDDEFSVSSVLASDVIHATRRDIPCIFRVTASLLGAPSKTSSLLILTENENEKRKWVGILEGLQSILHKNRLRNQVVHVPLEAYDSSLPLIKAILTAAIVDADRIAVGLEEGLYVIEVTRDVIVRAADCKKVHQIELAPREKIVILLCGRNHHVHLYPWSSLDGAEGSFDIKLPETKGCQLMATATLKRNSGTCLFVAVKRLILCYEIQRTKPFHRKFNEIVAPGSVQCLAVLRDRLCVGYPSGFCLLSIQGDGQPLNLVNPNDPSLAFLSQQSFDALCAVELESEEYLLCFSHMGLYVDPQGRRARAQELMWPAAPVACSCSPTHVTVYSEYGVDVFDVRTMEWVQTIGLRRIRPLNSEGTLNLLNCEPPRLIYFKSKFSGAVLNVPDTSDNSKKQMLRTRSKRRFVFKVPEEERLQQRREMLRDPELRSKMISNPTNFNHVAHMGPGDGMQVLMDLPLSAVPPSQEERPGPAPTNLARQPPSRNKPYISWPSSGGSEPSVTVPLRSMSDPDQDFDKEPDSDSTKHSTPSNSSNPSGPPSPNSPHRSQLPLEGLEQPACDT

Chain of MRCKA (CDC42BPA) (Q5VT25 whole entry): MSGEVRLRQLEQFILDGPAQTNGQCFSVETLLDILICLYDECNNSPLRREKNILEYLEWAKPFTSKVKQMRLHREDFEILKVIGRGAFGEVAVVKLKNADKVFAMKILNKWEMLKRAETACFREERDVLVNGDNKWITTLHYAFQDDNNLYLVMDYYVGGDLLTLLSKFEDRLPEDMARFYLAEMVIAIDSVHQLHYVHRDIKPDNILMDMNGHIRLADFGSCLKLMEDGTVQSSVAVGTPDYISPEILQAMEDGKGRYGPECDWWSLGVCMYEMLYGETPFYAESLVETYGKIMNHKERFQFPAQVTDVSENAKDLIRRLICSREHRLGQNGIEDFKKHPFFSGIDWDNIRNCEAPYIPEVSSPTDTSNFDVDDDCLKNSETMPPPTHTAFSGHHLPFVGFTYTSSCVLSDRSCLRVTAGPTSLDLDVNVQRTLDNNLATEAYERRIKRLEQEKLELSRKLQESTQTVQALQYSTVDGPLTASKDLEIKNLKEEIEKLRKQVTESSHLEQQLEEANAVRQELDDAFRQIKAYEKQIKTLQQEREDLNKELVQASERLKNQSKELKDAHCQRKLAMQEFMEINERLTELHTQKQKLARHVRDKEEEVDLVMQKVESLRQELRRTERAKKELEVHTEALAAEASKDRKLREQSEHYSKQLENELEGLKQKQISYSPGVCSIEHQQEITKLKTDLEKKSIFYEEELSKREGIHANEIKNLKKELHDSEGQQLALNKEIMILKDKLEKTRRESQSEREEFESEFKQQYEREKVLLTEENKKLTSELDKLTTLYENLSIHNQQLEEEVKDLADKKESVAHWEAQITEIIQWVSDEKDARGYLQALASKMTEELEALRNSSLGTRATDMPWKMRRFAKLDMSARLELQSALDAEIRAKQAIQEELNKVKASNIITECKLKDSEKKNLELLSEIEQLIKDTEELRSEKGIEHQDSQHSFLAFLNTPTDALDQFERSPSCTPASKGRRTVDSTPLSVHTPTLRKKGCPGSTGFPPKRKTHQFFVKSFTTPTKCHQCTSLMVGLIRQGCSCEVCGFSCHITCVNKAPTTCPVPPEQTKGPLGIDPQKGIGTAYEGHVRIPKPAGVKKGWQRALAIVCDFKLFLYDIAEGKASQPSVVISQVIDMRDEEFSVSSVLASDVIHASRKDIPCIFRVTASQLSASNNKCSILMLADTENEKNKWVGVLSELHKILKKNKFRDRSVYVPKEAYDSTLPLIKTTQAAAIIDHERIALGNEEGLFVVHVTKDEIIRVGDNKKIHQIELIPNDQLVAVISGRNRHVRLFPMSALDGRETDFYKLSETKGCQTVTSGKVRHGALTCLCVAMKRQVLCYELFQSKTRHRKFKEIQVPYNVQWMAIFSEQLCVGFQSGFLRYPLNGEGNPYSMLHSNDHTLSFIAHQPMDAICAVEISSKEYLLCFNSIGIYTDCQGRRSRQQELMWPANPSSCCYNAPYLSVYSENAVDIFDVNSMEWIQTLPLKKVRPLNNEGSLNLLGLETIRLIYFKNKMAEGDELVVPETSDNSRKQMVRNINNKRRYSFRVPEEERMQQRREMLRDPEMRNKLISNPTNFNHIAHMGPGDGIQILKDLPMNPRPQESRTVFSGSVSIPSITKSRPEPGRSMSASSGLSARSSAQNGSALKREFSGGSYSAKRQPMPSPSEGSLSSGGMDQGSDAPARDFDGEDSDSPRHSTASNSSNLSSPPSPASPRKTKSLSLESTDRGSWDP

In the case of BDP9066, the pEC50 (MRCKA (CDC42BPA)) was 7.19 and the pEC50 (MRCKB (CDC42BPB)) was 7.14.
